Patent publication US20230190707A1, “COMPOSITIONS AND METHODS FOR ENHANCING CANCER IMMUNOTHERAPY” (FRED HUTCHINSON CANCER CENTER, priority 2020, published 2023)
Where two headings read alike, the source gives them in different places.

Columns and labels:
[1] = tested on: T cells stimulated with anti-CD3 and CD28 antibodies; assay: Gene expression program of activated T cells (RNA-seq); type: cell-based, mouse; conditions: ex vivo anti-CD3 and CD28 stimulation in presence of drug
Method: (§1) Plates were coated with 10 μg/mL anti-CD3 (clone 145-2C11, Biolegend Cat. 100302) and 2 μg/mL anti-CD28 (clone 37.51, Biolegend Cat. 102102) in PBS overnight at 4° C. and washed twice with cold PBS prior to use. CFSE-labeled CD5-selected splenic T cells from naïve C57BL/6J mice were obtained identically as for adoptive cell transfer, and 5×10^4 cells incubated with coated plates in the presence of splicing inhibitor drugs at the indicated concentrations, followed by analysis by standard flow cytometry on day 3. Of note, for RNA-seq analyses, T cells were not labeled with CFSE, and underwent activation for 4 days (96 hours) in the presence of various splicing modulator drugs to harmonize experimental conditions with RNA-seq analyses of tumors treated with splicing inhibitors. For the RNA-seq experiments only, T cells in all conditions were also incubated with IL-2 at 50 U/mL to maximize viability and yield.
Bulk lung and colon were homogenized using a Qiagen TissueRuptor. For all tissues and cell types, RNA was extracted using an RNeasy kit (Qiagen, Frederick, Md.) and quantified using a NanoDrop 8000 (ThermoFisher Scientific). A minimum of 500 ng of high-quality RNA (as determined by Agilent Bioanalyzer) per sample or replicate was used for library preparation. Poly(A)-selected, strand-specific (dUTP method) Illumina libraries were prepared with a modified TruSeq protocol and sequenced on the Illumina HiSeq 2000 (˜100M 2×101 bp paired-end reads per sample or replicate).

[2] = tested on: bone marrow hematopoietic stem and progenitor cells; assay: M3434 methylcellulose colony assay; type: cell-based, mouse
Method: 25,000 red blood cell-lysed bone marrow mononuclear cells from C57BL/6 mice were plated in duplicates or triplicates in each well of a non-tissue-culture treated 6 well plate with M3434 methylcellulose media in the presence of splicing drugs at the indicated concentrations as per manufacturer's instructions (StemCell Technologies, Cat. 03434) and incubated for seven days prior to quantification of colonies by manual microscopy.

donor T cells = assay: CFSE adoptive T cell transfer with in vivo splicing modulator treatment
Method: Splenic T cells were obtained from B6 or CD45.1 donors by CD5 positive selection (Miltenyi Biotec, Cat. 130-049-301), labeled with CellTrace CFSE (ThermoFisher Cat. C34570) at 10 μM, and adoptively transferred by tail vein injection into lethally irradiated B6, Balb/c, or LP/J recipients, with […] labeled donor T cells transferred per recipient. All recipients were irradiated on day −1 prior to adoptive T cell transfer with 7 Gy as a single fraction and continuously received splicing inhibitor drugs or vehicle control at the indicated doses, from day −1 until day of sacrifice, with the initial dose of drug at least 4 hours after lethal irradiation. Indisulam and MS-023 were solubilized for in vivo administration and animals were treated as above. Pladienolide B (Tocris, Cat. 6070) and GEX1A (Cayman Chemicals, Cat. 25136) were both dissolved in vehicle (10% ethanol and 4% Tween-80 in sterile PBS) and administered i.p., with pladienolide B dosed at 10 mg/kg every other day, and GEX1A dosed at 1.25 mg/kg every four days. For in vivo use, EPZ015666 was dissolved in DMSO and solubilized in 0.5% methylcellulose in water to 20 mg/mL; animals were treated daily with 200 mg/kg by oral gavage.

CD5^+ splenic T cells = assay: Anti-CD3/CD28 T cell activation and proliferation (CFSE); type: cell-based, mouse; conditions: three days of continuous drug exposure
Method: Cell lines were grown with half-log10 concentrations of the indicated drug in 4 to 8 technical replicates under standard conditions until the control condition (DMSO or vehicle) was confluent by microscopy. For tumor cell lines, viable cells were quantified via the CellTiter-Glo® assay (Promega Cat. G7573) as per manufacturer instructions. For the ex vivo proliferation of T cells, viable cells were instead quantified via flow cytometry using counting beads. The percentage or number of viable cells with drug treatment was calculated relative to DMSO control (as 100%). […] For absolute cell number, Annexin V+, CD25+, and PD1+ flow cytometry data presented in Figure S4, dose-response models and IC50 values were computed using the R language's dre package (Ritz, C., et al. (2015). Dose-Response Analysis Using R. PLoS One 10, e0146021).
as §1

Molecule	genes normally upregulated upon T cell activation [1]	hematopoiesis (colony formation) ([2]; micromolar doses, pladienolide B at nanomolar concentrations)	in vivo T cell proliferation or activation in response to alloantigen (donor T cells; CD45.1 T cells into irradiated Balb/c or LP/J recipients, daily treatment)	IC50 values, T cell proliferation following stimulation (in words) (CD5^+ splenic T cells)	hematopoiesis (colony formation) [2]	in vivo T cell proliferation or activation in response to alloantigen (donor T cells; mouse, in vivo)
pladienolide B	markedly attenuated	even more profoundly suppressed hematopoiesis	markedly suppressed T cell proliferation	low nanomolar range	–	–
O=C(NC[C@H](O)CN1CCc2ccccc2C1)c1cc(NC2COC2)ncn1 [EPZ015666]	–	–	–	–	suppressed hematopoiesis	minimal impairment
CO[C@H]([C@@H](C)[C@H]1O[C@]1(C)C[C@H](C)/C=C/C=C(\C)[C@H]1O[C@@H](CC(=O)O)CC[C@@H]1C)[C@@H](C)O [GEX1A, herboxidiene]	–	–	–	low nanomolar range	–	–
